# Entries after “also recorded” stand apart in the source; their conditions may differ.
# Columns and labels:
# [1] = tested on: SMA (delta-7 mouse) animals; test: Tolerability after intraperitoneal injection in SMA model; format: in vivo; settings: 20 mg/kg intraperitoneally, five animals
# Experimental: (§1) The employed model of SMA is a genetic knock-in model of severe SMA (“delta-7 mouse”). This model was developed in The Ohio State University laboratories (Foust et al, 2010). In this study the mice were administered at post-natal day 2 via intracerebroventricular injection 40 μg of morpholino ASOs directed against ISS-N1 to increase full-length SMN protein production from SMN2 to allow the animal to live to about 90 days. Five animals aged 67 days were investigated in a study where 20 mg/kg CIC-1 inhibitor ((S)-2-(4-bromo-2-ethynylphenoxy)propionic acid) in phosphate buffered saline was administered intraperitoneally and subjected to a rotarod test battery 90 minutes after injection (single intervention) and CMAP recording 120 min after injection.
# [2] = tested on: SMA (delta-7 mouse) animals; test: Compound Muscle Action Potentials (CMAP) decrement, repeated sciatic nerve stimulation (EMG); format: in vivo; settings: for CMAP decrement, result in words: 10 to 50 Hz, before vs after treatment, significant from 20 to 50 Hz only; for CMAP Decrement % (10th/1st Stimulation): 20 mg/kg IP, 120 min after dosing
# Experimental: as §1
# Compound Muscle Action Potentials (CMAP) measurements were performed as previously described (Arnold et al, 2015). Briefly, the right sciatic nerve was stimulated with a pair of insulated 28-gauge monopolar needles (Teca, Oxford Instruments Medical, NY) placed in proximity to the sciatic nerve in the proximal hind limb. Recording electrodes consisted of a pair of fine ring wire electrodes (Alpine Biomed, Skovlunde, Denmark). The active recording electrode was placed distal to the knee joint over the proximal portion of the triceps surae muscle and the reference electrode over the metatarsal region of the foot. A disposable strip electrode (Carefusion, Middleton, WI) was placed on the contralateral hind limb to serve as the ground electrode. Data collection and analysis was performed using Cadwell Sierra Summit EMG unit (Cadwell laboratories, Kennewick, Washington, USA). Animals were stimulated in trains of 10 pulses of 50 μs at supramaximal voltage at 10, 20, 30, 40 and 50 Hz, with 10 seconds between stimulation trains.
# This was performed prior to dosing, and then 120 min after IP dosing of 20 mg/kg of the CIC-1inhibitor. The relative amplitude from the 10th to the 1st stimulation is denoted as decrement, and a larger negative number designates a larger deficit/decrement, indicating a larger transmission failure from nerve to muscle.
# [3] = tested on: SMA (delta-7 mouse) animals; test: RotaRod test (latency to fall) in SMA model; format: in vivo; settings: 20 mg/kg IP; for latency to fall / running test, result in words: before vs 90 min after dosing
# Experimental: as §1
# RotaRod (Harward apparatus, MA, USA) were used to explore the physical capabilities of the SMA mouse model in vivo and examined coordination ability of legs and endurance on a horizontal accelerating, rotating rod. The RotaRod test was designed to start at a low revolution rate of 5 rpm of the horizontal roll and accelerate gradually to 45 rpm over 300 seconds (maximal test time). Animals were acclimatized and trained for several weeks prior to intervention, to avoid training bias. […] This was performed prior to dosing, and then 90 min after IP dosing of 20 mg/kg of the CIC-1inhibitor.
# [4] = Phase I clinical trial Part A, single dose pharmacokinetics in plasma; format: in vivo, human
# Experimental: • Collect blood (3 mL recommended) onto wet ice (K2EDTA tubes) • Immediately cool blood on crushed wet ice for maximum of 30 minutes • Harvest plasma as quickly as possible using refrigerated centrifuge by centrifuging at 2000 g for 10 minutes at 4° C. • Keep plasma on wet ice and immediately stabilise with 1:1 (v/v) addition of Water: Orthophosphoric Acid (100:2 v/v) prepared using ≥85% orthophosphoric acid and deionised water (e.g. 750 μL plasma+750 μL stabiliser). • Mix sample thoroughly. • Keep the stabilised plasma on wet ice during subsequent steps. • Divide the stabilised plasma into 5×250 μL aliquots in plastic cryotubes. • Store aliquots at nominal −70° C./−80° C. promptly.
# • 1. Thaw frozen calibration standards, QC samples, blank matrix and study samples on wet ice. • 2. Vortex-mix all samples thoroughly. • 3. On wet ice aliquot 150 μL of calibration standards, QC samples, study samples, and blanks into a 2 mL 96-well plate. For the reagent blank add the same volume of Water. • 4. On wet ice add 25 μL of Methanol:Water (50:50) to wells containing blanks and the same volume of ISTD intermediate solution to all other wells. • 5. On wet ice add 125 μL of Water to each well. […] Condition SPE plate with 250 μL of Water. • 9. Load 250 μL of the sample onto the SPE plate (aspirate from the rim of the cone to avoid any debris collected at the bottom of the well). […]
# healthy volunteers = test: Phase I clinical trial Part A, tolerability/safety (adverse events); format: in vivo, human
# [5] = Tablet dissolution (USP2 paddles, HPLC); format: physicochemical; settings: immediate release tablets; USP2 paddles 75 RPM, 900 ml dissolution media pH 6.8, 37° C.; after a maximum of 60 minutes
# Experimental: Tablet dissolution was determined as follows.
# Dissolution Media pH 6.8 was prepared by dissolving 27.3 g Na2HPO4·2H2O and 4.9 g Citric Acid in 1 L Milli-Q water. The pH was measured and adjusted if necessary to pH 6.8.
# 900 mL of dissolution media pH 6.8 was accurately transferred into each dissolution vessel. The apparatus was assembled, and the dissolution media was heated to 37° C.±0.5° C. The T=0 point was extracted from each vessel prior to dropping the tablets into the dissolution vessels. One tablet was gently dropped into each dissolution vessel, and rotation of the paddle was immediately started. Samples were taken that the sample extraction timepoints and analysed using the HPLC method.
structure (smiles),measurement,setting,value
"C#Cc1cc(Br)ccc1O[C@@H](C)C(=O)O [CIC-1 inhibitor, (S)-2-(4-bromo-2-ethynylphenoxy)propionic acid]",adverse reactions to the compound injection,[1],"did not exhibit any adverse reactions to the compound injection, nor any signs of muscle stiffness"
same,"CMAP decrement, result in words",[2],only minimal decrement visible; also recorded: less pronounced in all animals at all frequencies; also recorded: reduced decrement in EMG (RNS) at all tested frequencies
same,"CMAP decrement, result in words",[2]; listed as CIC-1inhibitor,less pronounced in all animals at all frequencies
same,improvement in decrement,"[2]; at 50 Hz, mouse model of SMA",75%
same,CMAP Decrement % (10th/1st Stimulation),[2]; stimulation frequency 10 Hz,−7.0 ± 5.4%
same,CMAP Decrement % (10th/1st Stimulation),[2]; stimulation frequency 20 Hz,−8.1 ± 5.1%
same,CMAP Decrement % (10th/1st Stimulation),[2]; stimulation frequency 30 Hz,−8.4 ± 6.0%
same,CMAP Decrement % (10th/1st Stimulation),[2]; stimulation frequency 40 Hz,−8.9 ± 4.9%
same,CMAP Decrement % (10th/1st Stimulation),[2]; stimulation frequency 50 Hz,−7.7 ± 6.5%
same,Time for remaining on rotor rod,"[3]; 90 min after dosing, delta-7 mice aged 67 days, pre-treatment 62.2 ± 40.2",81 ± 63.2 s
same,"latency to fall / running test, result in words",[3],All animals were able to stay on the rotating rod longer after treatment; also recorded: performed better in the running test
same,"latency to fall / running test, result in words",[3]; listed as CIC-1inhibitor,All animals were able to stay on the rotating rod longer after treatment
"C[C@H](Oc1ccc(Br)cc1-c1ccon1)C(=O)O [NMD670, (2S)-2-[4-bromo-2-(1,2-oxazol-3-yl)phenoxy]propanoic acid]",half-life,"[4]; plasma, oral, human, stated in rationale for washout period",~4 h
same,"T1/2 (mean ± SD, hr)","[4]; single oral dose 100 mg, healthy male subjects",5.07 ± 0.63 h
same,adverse event that stopped dose escalation,"healthy volunteers; 1600 mg, dose level 7, spontaneously and fully resolved within hours",myotonia of moderate intensity observed in one subject
same,subject discontinuations,healthy volunteers; Part A,no subject discontinuations
same,total number of AEs reported,"healthy volunteers; Part A, 35 healthy subjects, single doses",70
same,intensity of AEs,"healthy volunteers; except one AE of myotonia (1600 mg) and tooth extraction (unrelated, 50 mg), moderate",Most AEs were mild
same,dose-related AE,"healthy volunteers; highest dose levels tested (1200 mg and 1600 mg), single dose",transient myotonia
same,number of AEs at least possibly drug related,"healthy volunteers; of 70 AEs, Part A",47
same,share of AEs at least possibly drug related,"healthy volunteers; of 70 AEs, Part A",67%
same,serious or severe adverse effects,"healthy volunteers; single doses 50 to 1600 mg, 35 healthy subjects",No serious or severe adverse effects were reported
same,NMD670 released from the tablets,[5],Not less than 80%

# Reference: patent US20260232640A1, “COMPOSITIONS AND METHODS FOR TREATING SPINAL MUSCULAR ATROPHY” (NMD Pharma A/S, priority 2023, published 2026)
